The text below walks through data of patent publication US20220107328A1, “METHODS OF TREATING LIVER DISEASES” (Camp4 Therapeutics Corporation, priority 2018, published 2022).

Experiment [1] concerns PNPLA3 mRNA. Briefly: qRT-PCR of PNPLA3 mRNA in compound-treated mouse hepatocytes. The format is cell-based. Background: In qPCR the cycle at which signal appears reflects the starting amount.
Experiment [2] concerns PNPLA3 mRNA. In words: qRT-PCR of PNPLA3 mRNA in human primary hepatic stellate cells. Particulars: for Relative PNPLA3 mRNA levels RQ: hepatic stellate cells; for Relative PNPLA3 mRNA expression: stellate cells, Table 37. The format is cell-based.
Experiment [3] has as its system PNPLA3 mRNA. In words: qRT-PCR of PNPLA3 mRNA in compound-treated primary human hepatocytes. Particulars: for Relative PNPLA3 mRNA expression: primary human hepatocytes, Table 35; for mrna remaining at 1 µM / mrna remaining at 10 µM: Homo sapiens, Hepatocyte.
Method: (§1) Cryopreserved hepatocytes were cultured in plating media for 16 hours, transferred to maintenance media for 4 hours. Cultured on serum-free media for 2 hours, then a compound was added. The hepatocytes were maintained on the serum-free media for 16 hours prior to gene expression analysis.
(§2) Human hepatocytes cultured as described above were plated in 24-well format, adding 375,000 cells per well in a volume of 500 μl plating medium. Four hours before treatment, cells were washed with PBS and the medium was changed to either: fresh maintenance medium (complete) or modified maintenance medium.
(§3) Compound stocks were prepared at 1000× final concentration and added in a 2-step dilution to the medium to reduce risk of a compound precipitating out of solution when added to the cells, and to ensure reasonable pipetting volumes. One at a time, each compound was first diluted 10-fold in warm (about 37° C.) modified maintenance medium (initial dilution=ID), mixed by vortexing, and the ID was diluted 100-fold into the cell culture (e.g. 5.1 μl into 1 well of a 24-well plate containing 0.5 mL medium). The plate was mixed by carefully swirling and after all wells were treated and returned to the incubator overnight. If desired, separate plates/wells were treated with vehicle-only controls and/or positive controls. If using multi-well plates, controls were included on each plate. After about 18 hours, cells were harvested for further analysis, e.g., ChIP-seq, RNA-seq, ATAC-seq, etc.
Analysis of the fold changes in expression as measured by qRT-PCR were performed using the technique below. The control was DMSO, and the treatment was the selected compound (CPD). The internal control was GAPDH or B-Actin (or otherwise indicated), and the gene of interest is the target. First, the averages of the 4 conditions were calculated for normalization: DMSO:GAPDH, DMSO:Target, CPD: GAPDH, and CPD:Target. Next, the ΔCT of both control and treatment were calculated to normalize to internal control (GAPDH) using (DMSO:Target)−(DMSO:GAPDH)=ΔCT control and (CPD:Target)−(CPD: GAPDH)=ΔCT experimental. Then, the ΔΔCT was calculated by ΔCT experimental−ΔCT control. The Expression Fold Change (or Relative Quantification, abbreviated as RQ) was calculated by 2−(ΔΔCT) (2-fold expression change was shown by RNA-Seq results provided herein).
The aim of the validation studies was to test the identified compounds from key pathways, and expand the compound franchise to identify other potential hits. Candidate compounds were subjected to validation with qRT-PCR in human hepatocytes. qRT-PCR was performed on samples of primary human hepatocytes from a second donor treated with the candidate compounds. Compounds were tested at concentrations ranging from 0.01 μM to 50 μM, with the majority tested at 10 μM.
Primary human hepatocytes and stellate cells were also incubated with inhibitors of the TGFβ pathway and PNPLA3 gene expression changes assessed via qRT-PCR as previously described. In addition, primary hepatocytes and stellate cells were treated with TGFβ-ligand alone or with selected the small molecule inhibitors for 18 hours and subsequently harvested. for gene expression assays.
The other set was harvest for mRNA processing as previously described.
The subject of the next experiment is COL1A1 mRNA. In words: qRT-PCR of COL1A1 mRNA in human primary hepatic stellate cells. It is filed as cell-based. Particulars: hepatic stellate cells.
The test system of another experiment is PNPLA3 expression. In words: RNA-seq of compound-treated primary human hepatocytes. It is filed as cell-based. The following applies: PNPLA3 expression, RNA-seq.

Structures are written as SMILES.

Method for PNPLA3 expression: as §1, §2, §3
The expression level of each gene was quantified with normalized FPKM (fragments per kilobase of exon per million mapped fragments). The differentially expressed genes were called using Cuffdiff v2.2.1 with q value<0.01 and log2 fold change>=1 or <=−1.
To identify small molecules that modulate PNPLA3, primary human hepatocytes were prepared as a monoculture, and at least one small molecule compound was applied to the cells.
RNA-seq was performed to determine the effects of the compounds on PNPLA3 expression in hepatocytes. Fold change was calculated by dividing the level of expression in the cell system that had been perturbed by the level of expression in an unperturbed system. Changes in expression having a p-value≤0.05 were considered significant.

With `COc1cccc2cc(-c3nc([C@H]4CC[C@H](C(=O)O)CC4)n4ncnc(N)c34)[nH]c12` [OSI-027/ASP7486], the “PNPLA3 mRNA remaining after treatment compared to untreated cells” value is 0.3 in the experiment with PNPLA3 mRNA [1] (Mouse hepatocytes, 1 uM); 0.35 with PNPLA3 mRNA [1] (Mouse hepatocytes, 10 uM); 0.2 in the experiment on PNPLA3 mRNA [2] (Human Stellate, 1 uM); 0.65 in the experiment on PNPLA3 mRNA [2] (Human Stellate, 10 uM); 0.3 (1 uM) in the experiment with PNPLA3 mRNA [3] (H Hep Donor-1, 1 uM (stated in cell)); 0.4 (1 uM) with PNPLA3 mRNA [3] (H Hep Donor-2, 1 uM (stated in cell)). For the same molecule, the “PNPLA3 mRNA remaining after treatment compared to untreated cells” value in the experiment on PNPLA3 mRNA [3] (H Hep Donor-3, 10 uM) is on record as 0.55; in the experiment on PNPLA3 mRNA [3] (H Hep Donor-4, 1 uM), 0.6; with PNPLA3 mRNA [3] (H Hep Donor-4, 10 uM) it was 0.38; in the experiment on PNPLA3 mRNA [3] (H Hep Donor-5, 1 uM) it was 0.5; with PNPLA3 mRNA [3] (H Hep Donor-5, 10 uM), 0.2.
`CN(c1ncccc1CNc1nc(Nc2ccc3c(c2)CC(=O)N3)ncc1C(F)(F)F)S(C)(=O)=O` [PF-00562271]: the “PNPLA3 mRNA remaining after treatment compared to untreated cells” value in the experiment on PNPLA3 mRNA [1] (Mouse hepatocytes, 10 uM) is reported as 0.27; in the experiment on PNPLA3 mRNA [2] (Human Stellate, 1 uM), 1; in the experiment with PNPLA3 mRNA [2] (Human Stellate, 10 uM), 0.18; with PNPLA3 mRNA [3] (H Hep Donor-2, 10 uM), 0.34; in the experiment on PNPLA3 mRNA [3] (H Hep Donor-3, 10 uM), 0.2; in the experiment on PNPLA3 mRNA [3] (H Hep Donor-4, 10 uM) it was 0.5. The “PNPLA3 mRNA remaining after treatment compared to untreated cells” value with PNPLA3 mRNA [3] (H Hep Donor-5, 1 uM) came to 1; with PNPLA3 mRNA [3] (H Hep Donor-5, 10 uM) it was 0.25.
For `CC(C)n1nc(-c2cc3cc(O)ccc3[nH]2)c2c(N)ncnc21` [PP242, Torkinib], the “Relative PNPLA3 mRNA levels” value in the experiment on PNPLA3 mRNA [1] (mouse hepatocytes, 1 μM, normalized to ACTB) worked out at 0.44 ± 0.10; with PNPLA3 mRNA [3] it was 0.50 ± 0.02. Also, the “Relative PNPLA3 mRNA levels RQ” value in the experiment on PNPLA3 mRNA [2] (0.01 μM) is on record as 1.07; with PNPLA3 mRNA [2] (0.1 μM) it was 0.74; in the experiment on PNPLA3 mRNA [2] (1 μM), 0.39; with PNPLA3 mRNA [2] (10 μM), 0.63. Also, the “Relative COL1A1 mRNA levels RQ” value with COL1A1 mRNA (0.01 μM) is recorded as 1.09; in the experiment with COL1A1 mRNA (0.1 μM), 1.02; in the experiment with COL1A1 mRNA (1 μM), 0.40; in the experiment on COL1A1 mRNA (10 μM), 0.18.
With `NS(=O)(=O)C#Cc1ccccc1` [Pifithrin-μ, 2-Phenylethynesulfonamide], in the experiment with PNPLA3 expression, the “Fold change (Log 2) vs untreated” value is −0.68.
Consider `COc1cc2c(cc1OC)CN(C(=O)/C=C/c1c(-c3ccccc3)n(C)c3ncccc13)CC2` [SIS3], for which the “PNPLA3 mRNA remaining after treatment compared to untreated cells” value stood at 0.50 with PNPLA3 mRNA [1] (Mouse hepatocytes, 10 uM); 0.2 in the experiment on PNPLA3 mRNA [3] (H Hep Donor-1, 10 uM); 0.55 with PNPLA3 mRNA [3] (H Hep Donor-2, 10 uM). Moreover, the “Relative PNPLA3 mRNA expression” value was determined as 1.49 ± 0.09 in the experiment on PNPLA3 mRNA [2] (0.01 uM); 1.38 ± 0.19 in the experiment on PNPLA3 mRNA [2] (0.1 uM); 0.77 ± 0.03 in the experiment with PNPLA3 mRNA [2] (1 uM); 7.95 ± 2.29 in the experiment on PNPLA3 mRNA [2] (10 uM); 1.358 ± 0.3303 in the experiment with PNPLA3 mRNA [3] (3.3 uM); 1.011 ± 0.2574 with PNPLA3 mRNA [3] (10 uM).
On to `CC(C)c1cc(CNc2nc(Nc3cc(C4CC4)[nH]n3)cc(N3CCN(C)CC3)n2)on1` [XL228], for which the mrna remaining at 1 µM in the experiment with PNPLA3 mRNA [1] (Hepatocyte, Mouse hepatocytes, 1 uM, read-out: PNPLA3 mRNA remaining after treatment compared to untreated cells) is 40%; in the experiment on PNPLA3 mRNA [2] (Human Stellate, 1 uM, read-out: PNPLA3 mRNA remaining after treatment compared to untreated cells), 80%; with PNPLA3 mRNA [3] (read-out: PNPLA3 mRNA remaining after treatment compared to untreated cells, H Hep Donor-1, 1 uM (stated in cell)) it was 40%; in the experiment with PNPLA3 mRNA [3] (read-out: PNPLA3 mRNA remaining after treatment compared to untreated cells, H Hep Donor-4, 1 uM), 55%; in the experiment on PNPLA3 mRNA [3] (read-out: PNPLA3 mRNA remaining after treatment compared to untreated cells, H Hep Donor-5, 1 uM) it was 55%. Besides, the mrna remaining at 10 µM with PNPLA3 mRNA [1] (Hepatocyte, Mouse hepatocytes, 10 uM, read-out: PNPLA3 mRNA remaining after treatment compared to untreated cells) was found to be 12%; in the experiment on PNPLA3 mRNA [2] (Human Stellate, 10 uM, read-out: PNPLA3 mRNA remaining after treatment compared to untreated cells) it was 70%; in the experiment with PNPLA3 mRNA [3] (read-out: PNPLA3 mRNA remaining after treatment compared to untreated cells, H Hep Donor-3, 10 uM), 30%; in the experiment with PNPLA3 mRNA [3] (read-out: PNPLA3 mRNA remaining after treatment compared to untreated cells, H Hep Donor-4, 10 uM) it was 55%; in the experiment with PNPLA3 mRNA [3] (read-out: PNPLA3 mRNA remaining after treatment compared to untreated cells, H Hep Donor-5, 10 uM), 25%.
